# Reference: patent US20200384161A1, “COMPOSITE ANTI-RESTENOSIS DRUG FOR CORONARY DRUG-ELUTING STENT AND CONTROLLED RELEASE SYSTEM THEREOF” (XINXIN MEDICAL TECHNOLOGY (SHANGHAI) CO. LTD, priority 2017, published 2020)
# Experiments:
# [1] = cited from earlier work
# VSMCs = settings: Li Hui et al. 2010; cited from earlier work
# [2] = test system: primary endothelial cells of porcine coronary vessels; assay: In vitro effect of arsenic trioxide on primary porcine coronary endothelial cells (total cell number); type: cell-based
# Description: (§1) FIGS. 1 and 2 show the effects of arsenic trioxide on primary smooth muscle cells and primary endothelial cells of porcine coronary vessels in in vitro experiments. In the figures, the vertical axis represents the total number of cells in the wells of the culture plate, and the horizontal axis represents the concentration of the arsenic trioxide solution. Each curve represents the effect of arsenic trioxide at various concentrations on apoptosis (decrease in total number of cells) at a given time. […] However, for smooth muscle cells, cells apoptosis began even at low concentrations (3 μM) from Day 2 (FIG. 1). […] Arsenic trioxide may induce apoptosis of smooth muscle cells while having poor inhibitory effect on endothelial cells or even promoting their growth.
# [3] = test system: primary smooth muscle cells of porcine coronary vessels; assay: In vitro effect of arsenic trioxide on primary porcine coronary vascular smooth muscle cells (total cell number); type: cell-based
# Description: as §1
substance,measurement,setting,value
arsenic trioxide,solubility in common solvents,[1]; common (organic) solvents such as ethanol,cannot be dissolved
same,solubility in water,[1]; only one crystal form out of three,slightly soluble
same,mitochondrial transmembrane potential (Δψm),VSMCs,could induce a decrease of mitochondrial transmembrane potential
same,pro-apoptotic effect on endothelial cells,[2],not obvious
same,proliferation of endothelial cells,[2]; FIG. 2,promoting proliferation of endothelial cell to a certain extent
same,effect on endothelial cells,[2]; at a concentration of 12 μM or below (FIG. 2),little effect
same,effect on endothelial cell growth,[2]; first to the third day upon drug action,stimulation of growth
same,concentration of arsenic trioxide at which smooth muscle cell apoptosis began,"[3]; from Day 2, decrease in total number of cells (FIG. 1)",3 µM
same,pro-apoptotic effect on smooth muscle cells,[3]; when it reaches a certain dose,strong pro-apoptotic effect
